Measured values from US8017140B2, “Drug-delivery stent formulations for restenosis and vulnerable plaque” (Advanced Cardiovascular System, Inc., priority 2004, dated 2011).

Test system: thin-cap fibroatheroma (TCFA)
Experiment: drug-eluting stent implants in hypercholesterolemic rabbit model of human thin-cap fibroatheroma
Type: in vivo
Details: 28 days; compared to unstented (de novo) TCFAs
Procedure: The MULTI-LINK Penta™ 13 mm was the platform for all DES and metallic stents. Both a slow release and fast release formulation of each drug were tested and the results were evaluated at 28 days. In both FIGS. 4 and 5, the test results concerning the slow release formulation were labeled with “s”, the test results concerning the fast release formulation were labeled with “f”, and the test results data concerning a formulation having both a slow and a fast release of an agent are labeled with “s+f.”

| SMILES | percent lipid area | total fibrous cap thickness |
| --- | --- | --- |
| CO[C@H]1C[C@@H]2CC[C@@H](C)[C@@](O)(O2)C(=O)C(=O)N2CCCC[C@H]2C(=O)O[C@H]([C@H](C)C[C@@H]2CC[C@@H](OCCO)[C@H](OC)C2)CC(=O)[C@H](C)/C=C(\C)[C@@H](O)[C@@H](OC)C(=O)[C@H](C)C[C@H](C)/C=C/C=C/C=C/1C [everolimus, 40-O-(2-hydroxy)ethyl-rapamycin] | reduce | increase |
| C[C@]12CC[C@@H]3c4ccc(O)cc4CC[C@H]3[C@@H]1CC[C@@H]2O [beta-estradiol, 17-beta-estradiol] | reduce | increase |
